This note sets out measurements from US20230087766A1, “METHODS OF REACTIVATING LATENT HUMAN IMMUNODEFICIENCY VIRUS AND RELATED COMPOSITIONS” (priority 2017, published 2023).

For series [1], the system named is T cells in PBMCs from healthy HIV-negative donors. Description: Immune activation and checkpoint markers in PBMCs by flow cytometry. The format is cell-based, human. On the procedure: PBMCs from healthy HIV-negative donors (n=5) were treated with 100 ng/ml PMA 2 plus 2 μg/ml ionomycin, 30 mM Na-Cro overnight, and analyzed by flow cytometry for the expression of CD4, CD8, HLA-DR, CD69, or PD-1 in CD3+ T cells. Percentage of cells expressing immune activation markers was presented for CD3+ cells (see panel A), CD3+CD4+ T cells (see panel B), and CD3+ CD8+ T cells (see panel C). ***, p<0.001, compared with control after 24 or 72 hour treatment.
It was examined whether induction of histone crotonylation in T cells impacted the level of immune activation in these cells. Peripheral blood mononuclear cells from HIV-negative healthy donors (n=5) were treated with PMA/Ionomycin or Na-Cro for 24 hours or 72 hours. Changes in the immune cell status were examined by measuring the levels of HLA-DR, CD69, and PD-1 in the T cell subsets by flow cytometric analysis (see FIG. 9). […] Instead, it is associated with the suppression of immune activation, which may have a beneficial effect on patient immune function.
Background: Flow cytometry measures light scatter and fluorescence of single cells or particles in a stream.

Series [2] relates to histone tails and transcription factors in J-Lat A1 cells. The series can be described thus: Western blot of global histone modifications and transcription factors. The format is cell-based. An excerpt: (§1) FIG. 2 is a series of images and graphs showing that histone crotonylation by sodium crotonate addition re-programs histone tails at the HIV LTR. Panel A illustrates that Na-Cro addition increased global expression of H3K4Cro, H3K4Ac, and H3K18Ac while decreasing H3K27Me3. Panel B illustrates expression of transcription factors after Na-Cro addition in J-Lat Al cells. Panels C-E illustrate that Na-Cro addition re-programmed histone tails at the HIV LTR. Chromatin immunoprecipitation (ChIP) assay was performed by using anti-H3K4Cr, anti-H3K4Ac, and anti-H3K27Me3 antibodies after J-Lat Al cells were treated with 30 mM Na-Cro for 4 hours. PCR primers were specific for the HIV LTR region.
Western Blot Analysis: Western blot analysis was performed by using one million cells treated with LRAs for 6 or 18 hours. Whole cell lysates were prepared using RIPA buffer. Nuclear Extracts were prepared using EPIQUIK™ Total Histone Extraction Kit ([…]™, Farmingdale N.Y.). Antibodies (CELL SIGNALING TECHNOLOGY®, Boston, Mass.) for Cyclin T1, CDK9, CDK9-P, NF-kB, GAPDH, and total H3 were used to detect protein expression under different drug conditions. Antibodies for H3K4Cro (PTM BIOLABS™, Chicago, Ill.), H3K27Me3 (CELL SIGNALING TECHNOLOGY®), H3K4Ac (CELL SIGNALING TECHNOLOGY®), and H3K18Ac (CELL SIGNALING TECHNOLOGY®) were used to measure histone modifications.
(Immunoblotting shows a protein as a band on a membrane.)

The subject of series [3] is latent HIV (HIV LTR-driven transcription) in J-Lat A1 cells. In kind it is cell-based. The protocol:
Cell culture: J-Lat Al cells (derived from Jurkat cells harboring HIV LTR-Tat-GFP gene) and U1 cells (promonocytic cell line harboring one copy of HIV genome with defective tat gene) were obtained from NIH AIDS Reagent Program and cultured at 37° C. with 5% CO2 in RPM11640 medium containing 10% FBS and 1% penicillin-streptomycin as previously described (see G. Jiang, et al. PLoS Pathogens 11, e1005066 (2015)).
For inhibiting ACSS2 and crotonylation, cells were pretreated with ACSS2 inhibitor, AR12 (SELLECK CHEMICALS™, Houston, Tex.), for 30 minutes, followed by Na-Cro treatment for 4 or 18 hours.
Real-Time PCR Analysis: HIV gene expression was measured using real-time PCR in J-Lat Al cells treated with LRAs. Total nucleic acid was extracted using RNEASY™ Kit, genomic DNA digested using DNase I and total RNA reverse transcribed using Superscript III to synthesize cDNA. […] […] TAMRA-3′ (SEQ ID NO:3).

Series [4] concerns HIV LTR in J-Lat A1 cells. The series can be described thus: Chromatin immunoprecipitation (ChIP) at the HIV LTR. In kind it is cell-based. The conditions noted are these: J-Lat A1 cells, 30 mM Na-Cro for 4 hours.
Excerpt: as §1
FIG. 7 is a series of graphs showing that induction of de-crotonylation of histone tail at HIV LTR is independent of SIRTs. Panel A illustrates that J-Lat Al cells were pre-treated with either 50 μM RSV or 1 mM NAM, followed by 30 mM Na-Cro addition to reactivate latent HIV expression. Untreated controls were compared with positive controls involving individual treatment of Na-Cro, RSV, or NAM. *, p<0.05; **, p<0.01 compared with control treatment. #, p<0.05 compared with Na-Cro treatment. Panel B illustrates that gene expression of sirt1 or sirt3 was measured by RT-qPCR in J-Lat Al cells treated with either 25 μM RSV, 50 μM RSV, or 1 mM NAM. *, p<0.05 and **, p<0.01 compared with control treatment. Panels C and D illustrate that histone crotonylation induces binding of SIRT3 and SIRT1 at the HIV LTR. J-Lat Al cells were treated with 30 mM Na-Cro for 4 hours and analyzed by ChIP assays using anti-SIRT1 or anti-SIRT3 antibodies. *, p<0.05 compared with control treatment.
Chromatin Immunoprecipitation (ChIP): J-Lat Al cells (2.5 to 5 million) were utilized in ChIP assays with anti-H3K18Ac, anti-H3K4Cr, anti-H3K27Me3, anti-H3K4Ac, anti-SIRT3 (CELL SIGNALING TECHNOLOGY®), and anti-SIRT1 (CELL SIGNALING TECHNOLOGY®) antibodies. ChIP assays were performed using […]® Kit from CELL SIGNALING TECHNOLOGY® as per the manufacturer's recommendations. Samples were cross-linked using formaldehyde and 150-1000 bp fragments were made using Micrococcal Nuclease digestion and 7 cycles of 30 seconds on/30 seconds off sonication. Antibodies were used to probe respective proteins. Purification of DNA was performed using the […]® Kit Protocol. Purified ChIP DNA was used in SYBR® Green qPCR using ChIP primers specific for HIV LTR.

Another series has as its system J-Lat A1 cells. Description: Cellular viability by flow cytometry of live/dead staining. In kind it is cell-based. The conditions noted are these: Na-Cro 10 mM to 40 mM. On the procedure: An increased concentration of Na-Cro was added in the J-Lat A1 cells, and cellular viability was evaluated by flow cytometry of live/dead staining.
Setting [5] is: healthy donors n=5, 30 mM Na-Cro.

“Also recorded” adds a separate entry of the source.

With `C/C=C/C(=O)[O-].[Na+]` [Na-Cro, sodium crotonate], in series [1] (setting [5]), the “HLA-DR expression in CD4+ or CD8+ T cells” value was “inhibited HLA-DR expression at 24 and 72 hours”; the “PD-1 expression in CD3+ T cells” value is on record as “did not change”; the “PD-1 expression in CD4+ or CD8+ T cells” value is reported as “did not modulate PD-1 expression”. Further, the “HLA-DR expression in CD3+ T cells” value in series [1] (healthy donors n=5, 30 mM Na-Cro or PMA plus ionomycin, 24 or 72 hours) is reported as “suppressed HLA-DR expression at 72 hours post-treatment”. In addition, the “expression of transcription factors involved in HIV transcription” value in series [2] (J-Lat A1 cells) is “did not alter transcription factors that are involved in HIV transcription except a minor induction of CDK9 protein”. Also, in series [2] (Na-Cro-treated T cells), the “global H3K4 acetylation” value is reported as “increased”, the “global H3K4 crotonylation” value is given as “increased”, the “global H3K18 acetylation” value is on record as “increased” and the “global H3K27 trimethylation” value is “markedly decreased”. In addition, the “induction of HIV LTR-driven transcription” value in series [3] (J-Lat A1 and U1 cell cultures) is reported as “dose-dependent manner”. Further, the “reactivation of latent HIV by epigenetic modifiers” value in series [3] (J-Lat A1 cells, 30 mM Na-Cro, 500 nM SAHA, 2 μM GSK343 or 5 μM AZA-dc, RT-qPCR) is recorded as “comparable capacity to reactivate latent HIV”. For the same compound, the “increase in HIV transcription compared to untreated controls” value in series [3] (J-Lat A1 cells, Na-Cro at 40 mM) is on record as 12 fold. Besides, the “HIV reactivation compared to the control” value in series [3] (Na-Cro alone, AR12 experiment (FIG. 3, panel D)) is 8 fold. Moreover, in series [4], the “acetylation at H3K4 at the HIV LTR” value is recorded as “increased”, the “binding of SIRT1 at the HIV LTR” value is reported as “efficiently bound to the HIV LTR at higher levels than controls”, the “binding of SIRT3 at the HIV LTR” value is on record as “efficiently bound to the HIV LTR at higher levels than controls” and the “crotonylation at H3K4 at the HIV LTR” value is reported as “increased”. For the same compound, the “histone tri-methylation at H3K27 at the HIV LTR” value in series [4] was “decreased”. Besides, in the series with J-Lat A1 cells, the cell toxicity entry is reported as “not toxic to immune cells; also recorded: Minimal cell toxicity”.
